Marks after values point to notes of the source that are not given here.
Tests used:
[1] = test system: freely moving adult male Sprague-Dawley rats; experiment: Whole-body plethysmography of ventilatory parameters in morphine-treated rats
Experimental: Permissions, rats, surgical procedures and blinding of protocols. All studies were carried out in accordance with the NIH Guide for the Care and Use of Laboratory Animals (NIH Publication No. […]) revised in 1996. The protocols were approved by the Animal Care and Use Committees of the University of Virginia, Case Western Reserve University and Loma Linda University. In addition, all studies were carried out in compliance with the ARRIVE (Animal Research: Reporting of In Vivo Experiments) guidelines. Adult male Sprague-Dawley rats (Harlan, Madison, WI, USA) were implanted with jugular vein catheters under 2% isoflurane anesthesia and some rats received femoral arterial catheters. The rats were allowed at least four days to recover from surgery before use. All arterial catheters were flushed daily with heparin solution (50 units of heparin in phosphate-buffered saline at 0.1 M, pH 7.4). All catheters were flushed with phosphate-buffered saline (0.1 M, pH 7.4) approximately four hours before commencement of the experiments. All studies were performed in a quiet laboratory with relative humidity of 49±2% and room temperature of 21.4±0.2° C. […] Also, please note that the antinociception and ventilatory studies were done in separate groups of rats so as to not complicate the respiratory measurements. The recording (plethysmography, antinociception) sessions and the arterial blood gas assays were done by a particular investigator who administered the opioid, vehicle or test drug such as d-cystine diME. The syringes containing the vehicle or test drug were made up by another investigator, such that the investigator running the actual experiment was blinded to the treatment protocol. In every case, the data files resulting from a particular study were first collated and analyzed by another investigator in the group.
Ventilatory parameters were recorded in freely moving rats by whole body plethysmography (PLY3223; Data Sciences International, St. Paul, MN). The rats were placed in individual chambers and given 60 min to acclimatize to allow true resting ventilatory parameters to be established. […] The rats received another injection of vehicle or 1-NACme (500 μmol/kg, IV) 15 min later and ventilatory parameters were recorded for a further 60 min.
The provided software (Fine Pointe, BUXCO) constantly corrected digitized values for changes in chamber temperature and humidity. Pressure changes associated with the respiratory waveforms were then converted to volumes (i.e., TV, PIF and PEF) using the algorithm of Epstein and colleagues. Specifically, factoring in chamber temperature and humidity, the cycle analyzers filtered the acquired signals, and BUXCO algorithms (Fine Pointe) generated an array of box flow data that identified a waveform segment as an acceptable breath. From that data vector, the minimum and maximum values were determined. Flows at this point were considered to be “box flow” signals.
The recorded data (1 min bins) and derived parameters, Vt/Ti and Response Area (cumulative percent changes from pre-values) were taken for statistical analyses. The pre-drug 1 min bins excluded occasional marked deviations from resting due to movements or scratching by the rats. These exclusions ensured accurate determinations of baseline parameters. The data are presented as mean±SEM. All data unless other-wise stated (see immediately below) were analyzed by one-way or two-way analysis of variance followed by Student's modified t test with Bonferroni corrections for multiple comparisons between means using the error mean square terms from each ANOVA. A value of P<0.05 denoted the initial level of statistical significance that was modified according to the number of comparisons between means.

freely moving rats [2] = experiment: Arterial blood-gas chemistry and A-a gradient in morphine-treated rats; assay type: in vivo, rat; details: for deleterious actions of morphine on ABG chemistry and A-a gradient: bolus 500 μmol/kg i.v. after morphine 10 mg/kg i.v., Example 1; for deleterious effects of morphine on ABG chemistry and A-a gradient after prior infusion: prior infusion 14.3 μmol/kg/min, total 500 μmol/kg i.v. over 35 min, morphine 10 mg/kg i.v.
freely moving rats [3] = experiment: Tail-flick latency (TFL) test; assay type: in vivo, rat
[4] = test system: conscious male adult Sprague-Dawley rats; experiment: Plethysmographic ventilatory responses to test compounds in conscious rats; assay type: in vivo, rat; details: 500 μmol/kg, i.v., FIG. 2
conscious rats = experiment: Morphine-induced analgesia (paw withdrawal latency assay), Example 1; assay type: in vivo, rat; details: pretreatment 500 μmol/kg i.v.; morphine 5 mg/kg i.v.
rats = experiment: Hemodynamics (preliminary toxicology); assay type: in vivo, rat; details: 500 μmol/kg, i.v.
Excerpt: FIGS. 11(A-C) illustrate plots showing the effects of test agents (500 μmol/kg, i.v.) on hemodynamic variables. Data are presented mean±SEM (n=8 rats per group).

adult male rats [5] = experiment: Hargreaves Hind-paw Latency Test, morphine 1 mg/kg; assay type: in vivo, rat; details: for Hargreaves hind-paw withdrawal latency: FIG. 24 study
adult male rats [6] = experiment: Von Frey Test, morphine 1 mg/kg; assay type: in vivo, rat; details: for force needed to initiate hind-paw withdrawal (Von Frey): FIG. 25 study
[7] = 500 μmol/kg IV with morphine sulfate 1.0 mg/kg IV
[8] = 500 μmol/kg IV, tested 20 to 30 min post-injection
[9] = two injections of L-NACme 500 μmol/kg IV after morphine 10 mg/kg IV

Q: With N[C@H](CSSC[C@@H](N)C(=O)O)C(=O)O [D-Cystine, D-cystine] as the molecule, how does the “Frequency: Drug - entire 75 min, % change” value ([1]; rat, in vivo) read?
A: The value was “+4.5 ± 3.3%”.

Q: And the “Frequency: Drug - last 15 min, % change” value ([1]; rat, in vivo)?
A: Its value is “+14.3 ± 2.8*^,† %”.

Q: And the “Frequency: Drug maximum, % change” value ([1]; rat, in vivo)?
A: The value was −1.2 ± 2.1%.

Q: And the “Minute Ventilation: Drug - entire 75 min, % change” value ([1]; rat, in vivo)?
A: The value was −19 ± 5 %.

Q: What about the “Minute Ventilation: Drug - last 15 min, % change” value ([1]; rat, in vivo) of the same molecule?
A: Its value is −2 ± 4*^,† %.

Q: What about the “Minute Ventilation: Drug maximum, % change” value ([1]; rat, in vivo) of the same molecule?
A: Its value is −4.4 ± 2.5%.

Q: And the “Tidal Volume: Drug - entire 75 min, % change” value ([1]; rat, in vivo)?
A: Its value is −22 ± 4 %.

Q: And the “Tidal Volume: Drug - last 15 min, % change” value ([1]; rat, in vivo)?
A: The value was −12 ± 2*^,† %.

Q: What about the “Tidal Volume: Drug maximum, % change” value ([1]; rat, in vivo) of the same molecule?
A: The value was “+3.4 ± 2.2%”.

Q: And the “immediate effects on Freq, TV or MV” value ([1]; rat, in vivo)?
A: The value was “did not elicit immediate effects”.

Q: What about the “return of Freq, TV and MV toward pre-morphine levels versus vehicle-treated rats” value ([1]; rat, in vivo) of the same molecule?
A: Its value is “returned toward pre-morphine levels more quickly”.

Q: What about the “deleterious actions of morphine on ABG chemistry and A-a gradient” value (shortened to “deleterious actions of morphine”) (freely moving rats [2]) of the same molecule?
A: The value was “minor delayed effects”.

Q: And the “changes in ABG chemistry (pH, pCO2, pO2 and sO2)” value (freely moving rats [2]; freely moving rats, morphine 10 mg/kg IV, then drug 500 μmol/kg IV 15 min later, FIG. 18)?
A: Its value is “returned toward pre-injection levels faster”.

Q: What about the “changes in A-a gradient” value (freely moving rats [2]; freely moving rats, morphine 10 mg/kg IV, then drug 500 μmol/kg IV 15 min later, FIG. 19) of the same molecule?
A: The value was “returned toward pre-injection levels”.

Q: What about the “Tail-Flick latency” value (freely moving rats [3]; 10 min-post drug (time −10 min), D-cystine 500 μmol/kg IV alone) of the same molecule?
A: The value was 3.3 ± 0.4 s.

Q: What about the “Tail-Flick latency” value (freely moving rats [3]; 20 min post-drug (time 0), D-cystine 500 μmol/kg IV alone) of the same molecule?
A: The value was 3.2 ± 0.4 s.

Q: And the “antinociceptive effects of morphine (TFL) in drug-pretreated rats” value (freely moving rats [3]; drug 500 μmol/kg IV 20 min before morphine 10 mg/kg IV)?
A: The value was “also enhanced”.

Q: And the “Tail-Flick latency” value (freely moving rats [3]; post-morphine - 30 min, D-cystine 500 μmol/kg IV pretreated, morphine 10 mg/kg IV)?
A: The value was 12 ± 0.0 s.

Q: What about the “Tail-Flick latency” value (freely moving rats [3]; post-morphine - 60 min, D-cystine 500 μmol/kg IV pretreated, morphine 10 mg/kg IV) of the same molecule?
A: Its value is 12 ± 0.0 s.

Q: And the “Tail-Flick latency” value (freely moving rats [3]; post-morphine - 90 min, D-cystine 500 μmol/kg IV pretreated, morphine 10 mg/kg IV)?
A: The value was 12 ± 0.0 s.

Q: And the “Tail-Flick latency (sec)” value (freely moving rats [3]; post-morphine - 120 min, D-cystine 500 μmol/kg IV pretreated, morphine 10 mg/kg IV)?
A: Its value is 12 ± 0.0*^,† sec.

Q: And the “Tail-Flick latency (sec)” value (freely moving rats [3]; post-morphine - 180 min, D-cystine 500 μmol/kg IV pretreated, morphine 10 mg/kg IV)?
A: The value was 10.7 ± 0.3*^,† sec.

Q: What about the “Tail-Flick latency (sec)” value (freely moving rats [3]; post-morphine - 210 min, D-cystine 500 μmol/kg IV pretreated, morphine 10 mg/kg IV) of the same molecule?
A: The value was 7.4 ± 0.3*^,† sec.

Q: And the “Tail-Flick latency” value (freely moving rats [3]; post-morphine - 240 min, D-cystine 500 μmol/kg IV pretreated, morphine 10 mg/kg IV)?
A: The value was 5.0 ± 0.3 s.

Q: And the “Tail-Flick latency” value (freely moving rats [3]; post-morphine - 360 min, D-cystine 500 μmol/kg IV pretreated, morphine 10 mg/kg IV)?
A: Its value is 3.5 ± 0.3 s.

Q: Which “total ventilatory responses recorded over the 30 min post-injection period (% baseline), comparison of efficacy” value [4] does the source give for CCOC(=O)[C@H](N)CS [D-CYSee, D-Cysteine ethyl ester] here?
A: The value was “more efficacious that L-CYSee/L-CYSme”.

Q: And the “ventilatory depressant effects of morphine incl. tidal volume/inspiratory time (Vt/Ti)” value ([1]; bolus 500 μmol/kg i.v. (D-CYSee 2×500 μmol/kg) after morphine 10 mg/kg i.v., conscious rats, Example 1)?
A: The value was “sustained reversal”.

Q: And the “deleterious actions of morphine” value (freely moving rats [2])?
A: Its value is “sustained reversal”.

Q: And the “decay of morphine analgesia” value (conscious rats)?
A: The value was “decayed more quickly”.

Q: What about the “initial level of analgesia (paw withdrawal latency) elicited by morphine” value (conscious rats) of the same molecule?
A: The value was “did not affect”.

Q: For COC(=O)[C@@H](N)CS [L-CYSme, L-cysteine methylester], which “total ventilatory responses recorded over the 30 min post-injection period (% baseline), comparison of efficacy” value [4] is on record?
A: The value was “as efficacious as L-CYSee”.

Q: N[C@H](CS)C(=O)O [D-cysteine] was tested. Which “deleterious actions of morphine” value (freely moving rats [2]) did it give?
A: The value was “minimal effects”.

Q: Which “total ventilatory responses recorded over the 30 min post-injection period (% baseline), comparison of efficacy” value [4] does the source give for CCOC(=O)[C@@H](N)CO [L-SERee, L-serine ethyl ester] here?
A: Its value is “minimally active”.

Q: What about the “deleterious effects of morphine on ABG chemistry and A-a gradient after prior infusion” value (freely moving rats [2]) of the same molecule?
A: Its value is “without effect”.

Q: CCOC(=O)[C@@H](N)CS [L-CYSee, L-Cysteine ethyl ester] was tested. Which “peak inspiratory flow and respiratory drive (Vt/Ti) during infusion” value ([1]; prior infusion 14.3 μmol/kg/min, total 500 μmol/kg i.v. over 35 min, conscious rats) did it give?
A: The value was “dramatically increased”.

Q: What about the “subsequent effects of a bolus injection of morphine on ventilation” value ([1]; prior infusion total 500 μmol/kg i.v. over 35 min, morphine 10 mg/kg i.v.) of the same molecule?
A: Its value is “markedly blunted”.

Q: What about the “effect of a subsequent injection after infusion and morphine” value ([1]; subsequent injection 250 μmol/kg/min as printed, morphine 10 mg/kg i.v.) of the same molecule?
A: Its value is “prompt beneficial effects”.

Q: And the “deleterious effects of morphine on ABG chemistry and A-a gradient after prior infusion” value (freely moving rats [2])?
A: The value was “virtually eliminated”.

Q: What about the “cardiac output and heart rate” value (rats) of the same molecule?
A: The value was “decreases”.

Q: And the “hemodynamic responses (FIG. 11)” value (rats)?
A: Its value is “minimal responses”.

Q: What about the “mean arterial blood pressure (MAP)” value (rats) of the same molecule?
A: The value was “substantial transient decreases”.

Q: And the total peripheral resistance (rats)?
A: The total peripheral resistance was “no changes”.

Q: What does the source list for COC(=O)[C@@H](N)CSSC[C@H](N)C(=O)OC [L-cystine diME]?
A: effect on the antinociception actions of morphine (Hargreaves) (adult male rats [5]; [7]): neither thiolester affected; thermal nociception (Hargreaves Testing) when given alone (adult male rats [5]; [8]): neither d-cystine diME nor L-cystine diME affected; Hargreaves hind-paw withdrawal latency (adult male rats [5]; L-cystine diME plus morphine): 18.5 ± 1.1 s; Hargreaves hind-paw withdrawal latency (adult male rats [5]; given alone, L-cystine diME 500 μmol/kg IV, morphine sulfate 1 mg/kg IV): 12.0 ± 0.5 s; Hargreaves hind-paw withdrawal latency (adult male rats [5]; morphine+L-cystine diME): 17.2 ± 0.9 s; effect on the antinociception actions of morphine (Von Frey) (adult male rats [6]; [7]): neither thiolester affected; mechanical allodynia (Von Frey Testing) when given alone (adult male rats [6]; [8]): neither d-cystine diME nor L-cystine diME affected; force needed to initiate hind-paw withdrawal (Von Frey) (adult male rats [6]; L-Cystine diME+morphine): 87.3 ± 4.2 g; force needed to initiate hind-paw withdrawal (Von Frey) (adult male rats [6]; given alone, L-cystine diME 500 μmol/kg IV, morphine 1 mg/kg IV): 51.0 ± 7.6 g; force needed to initiate hind-paw withdrawal (Von Frey) (adult male rats [6]; morphine+L-Cystine diME): 86.9 ± 5.2 g

Q: COC(=O)[C@H](CS)NC(C)=O [L-NACme, L-N-acetylcysteine methylester] was tested. Which “total ventilatory responses recorded over the 30 min post-injection period (% baseline), comparison of efficacy” value [4] did it give?
A: The value was “comparatively minor effects”.

Q: And the “effects on morphine-induced changes in Freq, TV and MV” value ([1]; 2×500 μmol/kg, IV, morphine 10 mg/kg)?
A: Its value is “only minor effects”.

Q: And the “Frequency: Drug - entire 75 min, % change” value [1, 9]?
A: Its value is “+11 ± 2 %”.

Q: What about the “Minute Ventilation: Drug - entire 75 min, % change” value [1, 9] of the same molecule?
A: The value was −19 ± 4 %.

Q: And the “Tidal Volume: Drug - entire 75 min, % change” value [1, 9]?
A: Its value is −22 ± 3 %.

Reference: patent publication US12083089B2, “Compositions and methods for stimulating ventilatory and/or respiratory drive” (CASE WESTERN RESERVE UNIVERSITY, priority 2015, dated 2024)
